Key:
[1] = tested on: human cancer cell lines HeLa, SCOV3 or MDA-MB-231; test: Delivery of the complex from loaded MSCs to cancer cells in co-culture, flow cytometry; assay type: cell-based; conditions: loaded MSCs co-cultured for 24 hours with cancer cells in ratio 2:1, example of results
Procedure: Cancer cell lines HeLa, SKOV3 and MDA-MB-231 were cultures in RPMI, 10%FBS, 1:100 penicillin/streptomycin, 1:100 L-glutamine. Media was changed every 2 days.
For co-culture with MSCs, cancer cells were detached from culture dish using 0,25% Trypsin-EDTA and resuspended in full RPMI media. UC-MSC cells were prepared as described in Example 1 and then mixed 2:1 (200 000:100 000) with cancer cell line and plated on 24-well plate. Co-culture media was a mixture 1:1 of media for MSC and cancer cells.
The results were analysed by flow cytometry. Before setting up the co-culture in every experiment cancer cells were stained with Cell Trace Violet (Thermo Fisher Scientific) in the 1:100 dilution. In experiments with fluorescent cargo (haemoglon-Alexa488 and ferritin-A488) UC-MSC and cancer cells were differentiated by Cell Trace Violet signal. In experiments with ferritin-doxorubicin all cells in co-culture were additionally stained with Draq7 (BioLegend) in order to track viability. Cells were differentiated by Cell Trace Violet.

[2] = tested on: Human umbilical Mesenchymal Stem Cells (MSC); test: Loading of UC-MSC in suspension with fluorescently labelled iron-binding protein complexes, flow cytometry; assay type: cell-based; conditions: MSC at passage five loaded with 0.6 mg/ml
Procedure: Umbilical Cord Mesenchymal Stem cells (UC-MSC) were cultured in DMEM 1000, 1:100 penicillin/streptomycin, 20% FBS, 8 ng/ml bFGF. Media was changed every 2 days. Experiments were carried out on UC-MSCs at passage 5.
Ferritin and haemoglobin complexes were produced as described in WO 2016/207257 (see in particular Examples 5 and 6).
Human UC-MSCs were loaded in suspension with fluorescently labelled haemoglobin-Alexa488, ferritn-Alexa488 or ferritin loaded with anticancer drug doxorubicin (ferritin-doxorubicin) as follows: UC-MSCs were detached from culture dish with 0,25% Trypsin-EDTA then cells were mixed with 0,6 mg/ml of haemoglobin-Alexa488, ferritn-Alexa488 and ferritn-doxorubicin in PBS to final cell density 10^6 per ml. Next cells were incubated for 1 hour at 37 °C, 5% CO2 and washed once in PBS afterwards. Cells were immediately used to set up co-culture with cancer cells.

Haemoglobin-Alexa488: fluorescently labelled haemoglobin-Alexa488, produced as described in WO 2016/207257
cancer cells positive for Haemoglobin-Alexa488 ([1]; Fig. 2C): Approximately 96% | cancer cells positive for Haemoglobin-Alexa488 ([1]; Fig. 3C (Ft- / Ft+ panels)): Approximately 92% | efficacy of loading of MSC [2]: ≥ 97% | mean fluorescence intensity in loaded MSC cells versus control group ([2]; fold higher than control group): 4 times

— EP3650046A1, “MESENCHYMAL STEM CELL BASED TARGETED ACTIVE INGREDIENT DELIVERY SYSTEM” (Cellis AG, priority 2018, dated 2020)
